Assay results as given in publication PMC11547513, “Design, Synthesis and Biological Activity Evaluation of β-Carboline Derivatives Containing Nitrogen Heterocycles” (Molecules, 2024).
Several values for one entry are separate records, joined by “and”; a condition that tells them apart may be missing. Equal entries are not always repeated.

Tests used:
PC-3 cells [1] = assay: Cell cycle assay (PI, flow cytometry); format: cell-based, human; conditions: 24 h; for Cell cycle distribution, S phase: negative control 20.8%; for Cell cycle distribution, G2/M phase: negative control 23.6%; for Cell cycle distribution, G0/G1 phase: negative control 50.6%
Protocol: To analyze the effect of compound 8q on cell cycle, the cycle of PC-3 cells was detected after being treated with compound 8q for 24 h (Figure 5). […] In addition, Cyclin D1, a cell cycle-related protein, is a key regulator of cycle progression, mainly regulating G1/S phase transition. […] In summary, compound 8q can arrest cells in the G0/G1 phase. […]
2.5. Cell cycle arrest of compound 8q on PC-3
To determine the effect of compound 8q on the cell cycle distribution of PC-3 cell, we used our previous method with slight modifications2. Briefly, cells were incubated in a six-well plate with a density of 3 × 105 at 37 ℃ and 5% CO2 for 24 h, followed by the addition of different concentrations of compound 8q for further incubation for 24 h.
Next, the cells were collected and washed twice with PBS. 75% anhydrous ethanol was used to immobilize the cells under overnight conditions at 4 ℃. Subsequently, PBS washed cells, and RNase from the cell cycle assay kit (Solarbio, Beijing, China) was added and incubated in a constant temperature (37 ℃) water bath for 30 min. Then PI was added under dark conditions and incubated at 4 ℃ for another half hour to detect.
The distribution of cycles was analyzed by Flow Jo and Prism 7.04 software. […]

PC-3 cells [2] = assay: Colony formation assay; format: cell-based, human; conditions: Figure 3A
PC-3 cells [3] = assay: Wound healing assay; format: cell-based, human; conditions: 24 h, control group 46.41%
Protocol: Given that cell migration plays a pivotal role in tumor cell invasion, to further validate the impact of compound 8q on PC-3 cell motility, a wound healing assay was conducted. […] These findings underscore the potent inhibitory effect of compound 8q on the motility of PC-3 cells. […]
a wound healing assay was performed using the method we previously reported1. In short, PC-3 cells were seeded in a six-well plate at a density of 10 × 105 and incubated at a constant temperature of 37 ℃ and 5% CO2 for 24 h. Then the pipette tip was used to create a uniform wound on the surface of cells. Subsequently, after cleaning twice with PBS, the scratch healing of the 8q treatment group and the positive drug treatment […]
was used to measure and quantify cell migration. […]

melting point: 181.8 to 182.7 °C
Compound: COc1cc(-c2nc(-c3nnc(SCC(=O)Nc4ccc(CN5CCOCC5)cc4)o3)cc3c2[nH]c2ccccc23)cc(OC)c1OC [Compound 8q, N-(4-(morpholinomethyl)phenyl)-2-((5-(1-(3,4,5-trimethoxyphenyl)-9H-pyrido[3,4-b]indol-3-yl)-1,3,4-oxadiazol-2-yl)thio)acetamide]
Cell cycle distribution, S phase (PC-3 cells [1]; 10 μM): 14.2%
Cell cycle distribution, G2/M phase (PC-3 cells [1]; 10 μM): 20.8%
Cell cycle distribution, G0/G1 phase (PC-3 cells [1]; 10 μM): 55.66% and 58.5%
Cell cycle distribution, S phase (PC-3 cells [1]; 20 μM): 13.0%
Cell cycle distribution, G2/M phase (PC-3 cells [1]; 20 μM): 18.4%
Cell cycle distribution, G0/G1 phase (PC-3 cells [1]; 20 μM): 60.83% and 63.0%
Cell cycle distribution, S phase (PC-3 cells [1]; 30 μM): 9.01%
Cell cycle distribution, G2/M phase (PC-3 cells [1]; 30 μM): 20.5%
Cell cycle distribution, G0/G1 phase (PC-3 cells [1]; 30 μM): 62.03% and 64.9%
Inhibition of colony formation (proliferation) of PC-3 cells (PC-3 cells [2]): concentration-dependent manner
Migration rate of PC-3 cells (PC-3 cells [3]; 10 μM): 29.56%
Migration rate of PC-3 cells (PC-3 cells [3]; 20 μM): 26.32%
Migration rate of PC-3 cells (PC-3 cells [3]; 30 μM): 19.99%
